Laboratory results taken from patent publication US20060013794A1, “Cosmetic or pharmaceutical composition comprising peptides with the sequences arggly-ser” (priority 2002, published 2006).
Where a SMILES comes first, the peptide text is derived from it.

System: HaCat human keratinocytes
Assay: Cell differentiation, immunofluorescence with anti-ERG 1-2 antibodies
Assay type: cell-based
Conditions: at 24 hours

N=C(N)NCCC[C@H](N)C(=O)NCC(=O)N[C@@H](CO)C(=O)O [Arg-Gly-Ser] (H-Arg-Gly-Ser-OH)
quantity of ERG molecules present in the cells (fluorescence intensity, cell differentiation marker): increases
